Experimental data taken from PubChem BioAssay AID1963845 (Molecular Pharmacology Branch, DTP, NCI, 2024).
pIC50: −log10 of the molar value.

Test system: 429239-143-T-J1-PDC complex spheroid viability
Experiment: Anticancer human tumor 429239-143-T-J1-PDC patient-derived small cell lung carcinoma cell line growth inhibition [POLQ]
Details: for pIC50: curve of first compound; for viability, T/C: stronger effect = lower value
Procedure, shortened: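 Complex spheroid viability model combining PDC tumour cells with endothelial (HUVEC) and MSC stromal cells. Novobiocin, ART-558 or RP6685 were tested singly and in combination with standard and investigational anticancer drugs. Each was titrated in half-log steps from near clinical Cmax, or from 10 microM where Cmax was unknown.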

[1] = second compound 0.0316 µM, first compound 0.0316 µM
[2] = second compound 0.0316 µM, first compound 0.1 µM
[3] = second compound 0.0316 µM, first compound 0.316 µM
[4] = second compound 0.0316 µM, first compound 1 µM
[5] = second compound 0.0316 µM, first compound 3.16 µM
[6] = second compound 0.0316 µM, first compound 10 µM
[7] = second compound 0.1 µM, first compound 0.0316 µM
[8] = second compound 0.1 µM, first compound 0.1 µM
[9] = second compound 0.1 µM, first compound 0.316 µM
[10] = second compound 0.1 µM, first compound 1 µM
[11] = second compound 0.1 µM, first compound 3.16 µM
[12] = second compound 0.1 µM, first compound 10 µM
[13] = second compound 0.316 µM, first compound 0.0316 µM
[14] = second compound 0.316 µM, first compound 0.1 µM
[15] = second compound 0.316 µM, first compound 0.316 µM
[16] = second compound 0.316 µM, first compound 1 µM
[17] = second compound 0.316 µM, first compound 3.16 µM
[18] = second compound 0.316 µM, first compound 10 µM
[19] = second compound 1 µM, first compound 0.0316 µM
[20] = second compound 1 µM, first compound 0.1 µM
[21] = second compound 1 µM, first compound 0.316 µM
[22] = second compound 1 µM, first compound 1 µM
[23] = second compound 1 µM, first compound 3.16 µM
[24] = second compound 1 µM, first compound 10 µM
[25] = second compound 3.16 µM, first compound 0.0316 µM
[26] = second compound 3.16 µM, first compound 0.1 µM
[27] = second compound 3.16 µM, first compound 0.316 µM
[28] = second compound 3.16 µM, first compound 1 µM
[29] = second compound 3.16 µM, first compound 3.16 µM
[30] = second compound 3.16 µM, first compound 10 µM
[31] = second compound 10 µM, first compound 0.0316 µM
[32] = second compound 10 µM, first compound 0.1 µM
[33] = second compound 10 µM, first compound 0.316 µM
[34] = second compound 10 µM, first compound 1 µM
[35] = second compound 10 µM, first compound 3.16 µM
[36] = second compound 10 µM, first compound 10 µM
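Note: luminescence signal used as surrogate measure of viable cells; spheroids exposed to compounds for seven days before readout.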
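Throughout, for viability, T/C: 100% = DMSO vehicle control viability as luminescence relative to vehicle.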

## CC1COCCN1c1cc(C2(S(C)(=N)=O)CC2)nc(-c2ccnc3[nH]ccc23)n1 (stereo unspecified) + Cc1cccc(N(C)C(=O)C2C(O)CCN2c2nc(C)cc(C(F)(F)F)c2C#N)c1
Second compound 0.0316 µM
  pIC50: 5.66
Second compound 0.1 µM
  pIC50: 5.68
Second compound 0.316 µM
  pIC50: 5.69
Second compound 1 µM
  pIC50: 5.68
Second compound 3.16 µM
  pIC50: 5.63
Second compound 10 µM
  pIC50: 5.62
[1]
  viability, T/C: 108%
[2]
  viability, T/C: 105%
[3]
  viability, T/C: 92.9%
[4]
  viability, T/C: 77.3%
[5]
  viability, T/C: 37.2%
[6]
  viability, T/C: 15.9%
[7]
  viability, T/C: 105%
[8]
  viability, T/C: 106%
[9]
  viability, T/C: 96.7%
[10]
  viability, T/C: 72.9%
[11]
  viability, T/C: 37.6%
[12]
  viability, T/C: 16%
[13]
  viability, T/C: 101%
[14]
  viability, T/C: 99.6%
[15]
  viability, T/C: 97.2%
[16]
  viability, T/C: 73.6%
[17]
  viability, T/C: 34.9%
[18]
  viability, T/C: 17.3%
[19]
  viability, T/C: 91.2%
[20]
  viability, T/C: 98.9%
[21]
  viability, T/C: 89.7%
[22]
  viability, T/C: 75.7%
[23]
  viability, T/C: 35.8%
[24]
  viability, T/C: 17.7%
[25]
  viability, T/C: 96.9%
[26]
  viability, T/C: 97.6%
[27]
  viability, T/C: 94.5%
[28]
  viability, T/C: 71.3%
[29]
  viability, T/C: 42.6%
[30]
  viability, T/C: 18.3%
[31]
  viability, T/C: 105%
[32]
  viability, T/C: 103%
[33]
  viability, T/C: 98.4%
[34]
  viability, T/C: 60.2%
[35]
  viability, T/C: 50.3%
[36]
  viability, T/C: 17.8%

## CCc1cc2c(N3CCc4c(cc(Cn5ccnc5)cc4-c4cn(C)nc4C(F)(F)F)C3=O)ccnc2c(OC)n1 + Nc1ccc(C#CCN(C(=O)Cc2ncc(C(F)(F)F)cc2C(F)(F)F)c2ccc(F)cc2)nn1
Second compound 0.0316 µM
  pIC50: 5.01
Second compound 0.1 µM
  pIC50: < 5.00
Second compound 0.316 µM
  pIC50: 5.10
Second compound 1 µM
  pIC50: 5.02
Second compound 3.16 µM
  pIC50: < 5.00
Second compound 10 µM
  pIC50: < 5.00
[1]
  viability, T/C: 100%
[2]
  viability, T/C: 94.9%
[3]
  viability, T/C: 85.2%
[4]
  viability, T/C: 80.7%
[5]
  viability, T/C: 86.4%
[6]
  viability, T/C: 48%
[7]
  viability, T/C: 93.7%
[8]
  viability, T/C: 96.8%
[9]
  viability, T/C: 92.5%
[10]
  viability, T/C: 74.1%
[11]
  viability, T/C: 68.5%
[12]
  viability, T/C: 49.2%
[13]
  viability, T/C: 112%
[14]
  viability, T/C: 113%
[15]
  viability, T/C: 97.8%
[16]
  viability, T/C: 83.8%
[17]
  viability, T/C: 69.9%
[18]
  viability, T/C: 44.7%
[19]
  viability, T/C: 108%
[20]
  viability, T/C: 94.4%
[21]
  viability, T/C: 94.4%
[22]
  viability, T/C: 84.6%
[23]
  viability, T/C: 74.3%
[24]
  viability, T/C: 47.6%
[25]
  viability, T/C: 108%
[26]
  viability, T/C: 96%
[27]
  viability, T/C: 93.1%
[28]
  viability, T/C: 93.6%
[29]
  viability, T/C: 70.9%
[30]
  viability, T/C: 54%
[31]
  viability, T/C: 103%
[32]
  viability, T/C: 93%
[33]
  viability, T/C: 88.5%
[34]
  viability, T/C: 79.1%
[35]
  viability, T/C: 71%
[36]
  viability, T/C: 48.2%

## CC1COCCN1c1cc(-c2ccnn2C)c2ccnc(-c3ccn[nH]3)c2n1 (stereo unspecified) + COC1C(OC(N)=O)C(O)C(Oc2ccc3c(O)c(NC(=O)c4ccc(O)c(CC=C(C)C)c4)c(=O)oc3c2C)OC1(C)C
Second compound 0.0316 µM
  pIC50: 7.09
Second compound 0.1 µM
  pIC50: 7.12
Second compound 0.316 µM
  pIC50: 7.15
Second compound 1 µM
  pIC50: 6.94
Second compound 3.16 µM
  pIC50: 6.98
Second compound 10 µM
  pIC50: 7.05
[1]
  viability, T/C: 85.1%
[2]
  viability, T/C: 40.2%
[3]
  viability, T/C: 27.5%
[4]
  viability, T/C: 12.9%
[5]
  viability, T/C: 10.1%
[6]
  viability, T/C: 8.09%
[7]
  viability, T/C: 71.9%
[8]
  viability, T/C: 42%
[9]
  viability, T/C: 28.8%
[10]
  viability, T/C: 13.6%
[11]
  viability, T/C: 8.87%
[12]
  viability, T/C: 10.7%
[13]
  viability, T/C: 75.5%
[14]
  viability, T/C: 35.2%
[15]
  viability, T/C: 28.5%
[16]
  viability, T/C: 13.1%
[17]
  viability, T/C: 10.9%
[18]
  viability, T/C: 9.18%
[19]
  viability, T/C: 79.2%
[20]
  viability, T/C: 53.4%
[21]
  viability, T/C: 27.6%
[22]
  viability, T/C: 15.6%
[23]
  viability, T/C: 10.5%
[24]
  viability, T/C: 10.6%
[25]
  viability, T/C: 83.8%
[26]
  viability, T/C: 50.1%
[27]
  viability, T/C: 29.3%
[28]
  viability, T/C: 14.2%
[29]
  viability, T/C: 10.6%
[30]
  viability, T/C: 9.32%
[31]
  viability, T/C: 72.7%
[32]
  viability, T/C: 46.7%
[33]
  viability, T/C: 28%
[34]
  viability, T/C: 13.1%
[35]
  viability, T/C: 9.4%
[36]
  viability, T/C: 9.29%
